Measured values reported in patent US20210137948A1, “TREATMENT OF INFECTIONS CAUSED BY NEISSERIA GONOCOCCUS USING A HALOGENATED SALICYLANILIDE” (priority 2018, published 2021).
Converted amounts (≈) assume the structure as drawn. Like-named read-outs stand apart in the source and are kept apart here.

Columns and labels:
rats = conditions: cited from earlier work; for LD50, median: median of the studies
mice = conditions: cited from earlier work
[1] = system: Neisseria gonorrhoeae CDC panel consisting of 48 isolates; assay: Agar dilution MIC, CDC panel of 48 isolates (Example 2); type: cell-based; conditions: for MIC: Neisseria gonorrhoeae, read-out: Minimal inhibitory concentration; for in vitro activity (in words): against N. gonococcus (N. gonorrhoeae), Example 2 conclusion
Protocol: Neisseria gonorrhoeae (Neisseria gonocossus) were tested for antimicrobial susceptibility using agar dilution as described by the Clinical and Laboratory Standards Institute (CLSI), see reference (4).
The concentrations tested for each compound encompass the reported interpretive breakpoints and consist of 8 or more doubling dilutions, ensuring that there is one dilution below the lowest value of QC.
GC agar base +1% defined growth supplement.
Initial screening strains: Neisseria gonorrhoeae CDC panel consisting of 48 isolates. The strains were provided by Clinical and Environmental Microbiology Branch, Division of Healthcare Quality Promotion, CDC (Atlanta, US).
Dilution scheme for reference method: Prepare intermediate 100× antimicrobial agent solutions by making successive serial twofold dilutions. Then, add one part of the 100× antimicrobial solution to […] of molten agar. Plates containing no antimicrobial agent solutions are made for use as growth controls. It is important that no longer than one hour elapses between the time that the stock solution is thawed, the dilutions are prepared and added to the base medium and the plates are poured, see reference (5).
• Add appropriate dilutions of antimicrobial solution to molten test agars that have been allowed to equilibrate in a water bath to 50° C. • Mix the agar and antimicrobial solution thoroughly and pour (20 mL) into Petri dishes on a level surface. Pour quickly after mixing to prevent cooling and partial solidification in the mixing container. Avoid generating bubbles when mixing. • Allow the agar to solidify at room temperature and store them in sealed plastic bags at 2 to 8° C. for up to five days. Preferably use with 24 hours. • Allow plates stored at 2 to 8° C. to equilibrate to room temperature before use. Make certain that the agar surface is dry before inoculating the plates. If necessary, place the plates in an incubator or laminar flow hood for approximately 30 minutes with their lids ajar to hasten drying of the agar surface.
Inoculum preparation: Prepare a standardized inoculum for the agar dilution method by suspending isolated colonies of Neisseria gonorrhoeae selected from an 18-24 hour-old chocolate agar plate directly in Mueller Hinton Broth (MHB) to achieve the density equivalent to a 0.5 McFarland standard and adjusted to obtain a cell density of ˜1-2×10^8 CFU/mL. For N. gonorrhoeae, the McFarland solutions are made at a reading of ˜0.80 in densitometer (Grant Instruments DEN-1B Densitometer) because these values have been evaluated and correspond to the desired CFU/mL count.
Dilution of inoculum suspension: Cultures adjusted to the 0.5 McFarland standard contain approximately 1 to 2×10^8 CFU/mL with most species, and the final inoculum required is 10^4 CFU per spot. When using replicators with 3-mm pins that deliver ˜2.5 μL, dilute the 0.5 McFarland suspension 1:10 in sterile MHB to obtain a concentration of 10^7 CFU/mL. The final inoculum on the agar will be approximately 10^4 CFU per spot. Use the adjusted suspensions for final inoculation within 60 minutes of preparation, see reference (5).
The following procedure was followed: • Arrange the tubes containing the adjusted and diluted bacterial suspensions (10^7 CFU/mL) in order in a rack. Place an aliquot of each well-mixed suspension into the corresponding well in the replicator inoculum block (if being used). • Mark the agar plates for orientation of the inoculum spots. • Apply an aliquot of each inoculum (2.5 μL) to the agar surface, either with an inocula-replicating device or pipette, to obtain a final concentration of ˜10^4 CFU/spot. • Inoculate a growth-control plate (no antimicrobial agent) first and then, starting with the lowest concentration, inoculate the plates containing the different antimicrobial concentrations. […]

rabbits = conditions: p.o.; cited from earlier work
[2] = Neisseria gonorrhoeae strain CDC # 165
[3] = Neisseria gonorrhoeae strain CDC # 166
[4] = Neisseria gonorrhoeae strain CDC # 167
[5] = Neisseria gonorrhoeae strain CDC # 169
[6] = Neisseria gonorrhoeae strain CDC # 170
[7] = Neisseria gonorrhoeae strain CDC # 171
[8] = Neisseria gonorrhoeae strain CDC # 172
[9] = Neisseria gonorrhoeae strain CDC # 173
[10] = Neisseria gonorrhoeae strain CDC # 174
[11] = Neisseria gonorrhoeae strain CDC # 175
[12] = Neisseria gonorrhoeae strain CDC # 176
[13] = Neisseria gonorrhoeae strain CDC # 177
[14] = Neisseria gonorrhoeae strain CDC # 178
[15] = Neisseria gonorrhoeae strain CDC # 179
[16] = Neisseria gonorrhoeae strain CDC # 180
[17] = Neisseria gonorrhoeae strain CDC # 181
[18] = Neisseria gonorrhoeae strain CDC # 182
[19] = Neisseria gonorrhoeae strain CDC # 183
[20] = Neisseria gonorrhoeae strain CDC # 184
[21] = Neisseria gonorrhoeae strain CDC # 185
[22] = Neisseria gonorrhoeae strain CDC # 186
[23] = Neisseria gonorrhoeae strain CDC # 187
[24] = Neisseria gonorrhoeae strain CDC # 188
[25] = Neisseria gonorrhoeae strain CDC # 189
[26] = Neisseria gonorrhoeae strain CDC # 190
[27] = Neisseria gonorrhoeae strain CDC # 191
[28] = Neisseria gonorrhoeae strain CDC # 192
[29] = Neisseria gonorrhoeae strain CDC # 193
[30] = Neisseria gonorrhoeae strain CDC # 194
[31] = Neisseria gonorrhoeae strain CDC # 195
[32] = Neisseria gonorrhoeae strain CDC # 196
[33] = Neisseria gonorrhoeae strain CDC # 198
[34] = Neisseria gonorrhoeae strain CDC # 199
[35] = Neisseria gonorrhoeae strain CDC # 200
[36] = Neisseria gonorrhoeae strain CDC # 201
[37] = Neisseria gonorrhoeae strain CDC # 202
[38] = Neisseria gonorrhoeae strain CDC # 203
[39] = Neisseria gonorrhoeae strain CDC # 204
[40] = Neisseria gonorrhoeae strain CDC # 205
[41] = Neisseria gonorrhoeae strain CDC # 206
[42] = Neisseria gonorrhoeae strain CDC # 207
[43] = Neisseria gonorrhoeae strain CDC # 208
[44] = Neisseria gonorrhoeae strain CDC # 209
[45] = Neisseria gonorrhoeae strain CDC # 210
[46] = Neisseria gonorrhoeae strain CDC # 211
[47] = Neisseria gonorrhoeae strain CDC # 212
[48] = Neisseria gonorrhoeae strain CDC # 213
[49] = Neisseria gonorrhoeae strain CDC # 214

In the case of `Cc1cc(C(C#N)c2ccc(Cl)cc2)c(Cl)cc1NC(=O)c1cc(I)cc(I)c1O` (centres unmarked) [Closantel, closantel], the “LD50, median” value (rats; p.o.) is given as 302 mg/kg, the LD50 (rats; p.o.) is given as 262 to 342 mg/kg and the LD50 (rats; s.c.) is given as 67 mg/kg. The LD50 (mice; i.m.) was 57 mg/kg, the LD50 (mice; p.o.) was 331 mg/kg and the MIC [1, 2] was 8 µg/mL (≈ 12.1 µM). For the same compound, the MIC [1, 3] was at most 0.25 µg/mL, the MIC [1, 4] was at most 0.25 µg/mL and the MIC [1, 5] was at most 0.25 µg/mL. The MIC [1, 6] was at most 0.25 µg/mL, the MIC [1, 7] was at most 0.25 µg/mL and the MIC [1, 8] was at most 0.25 µg/mL. For the same compound, the MIC [1, 9] was 0.5 µg/mL (≈ 0.754 µM), the MIC [1, 10] was at most 0.25 µg/mL and the MIC [1, 11] was at most 0.25 µg/mL. For the same compound, the MIC [1, 12] was at most 0.25 µg/mL, the MIC [1, 13] was 4 µg/mL (≈ 6.03 µM) and the MIC [1, 14] was at most 0.25 µg/mL. The MIC [1, 15] was at most 0.25 µg/mL, the MIC [1, 16] was at most 0.25 µg/mL and the MIC [1, 17] was at most 0.25 µg/mL. For the same compound, the MIC [1, 18] was at most 0.25 µg/mL, the MIC [1, 19] was at most 0.25 µg/mL and the MIC [1, 20] was at most 0.25 µg/mL. For the same compound, the MIC [1, 21] was at most 0.25 µg/mL, the MIC [1, 22] was at most 0.25 µg/mL and the MIC [1, 23] was at most 0.25 µg/mL. For the same compound, the MIC [1, 24] was at most 0.25 µg/mL, the MIC [1, 25] was at most 0.25 µg/mL and the MIC [1, 26] was at most 0.25 µg/mL. The MIC [1, 27] was at most 0.25 µg/mL, the MIC [1, 28] was at most 0.25 µg/mL and the MIC [1, 29] was at most 0.25 µg/mL. It also gave an MIC [1, 30] of at most 0.25 µg/mL, an MIC [1, 31] of at most 0.25 µg/mL and an MIC [1, 32] of at most 0.25 µg/mL. It also gave an MIC [1, 33] of at most 0.25 µg/mL, an MIC [1, 34] of at most 0.25 µg/mL and an MIC [1, 35] of at most 0.25 µg/mL. It also gave an MIC [1, 36] of at most 0.25 µg/mL, an MIC [1, 37] of at most 0.25 µg/mL and an MIC [1, 38] of at most 0.25 µg/mL. It also gave an MIC [1, 39] of 0.5 µg/mL (≈ 0.754 µM), an MIC [1, 40] of at most 0.25 µg/mL and an MIC [1, 41] of at most 0.25 µg/mL. For the same compound, the MIC [1, 42] was at most 0.25 µg/mL, the MIC [1, 43] was at most 0.25 µg/mL and the MIC [1, 44] was at most 0.25 µg/mL. The MIC [1, 45] was at most 0.25 µg/mL, the MIC [1, 46] was at most 0.25 µg/mL and the MIC [1, 47] was at most 0.25 µg/mL. The MIC [1, 48] was at most 0.25 µg/mL, the MIC [1, 49] was at most 0.25 µg/mL and the “in vitro activity (in words)” value [1] was “Good in vitro activity”.

In the case of `O=C(Nc1cc(Cl)cc(Cl)c1O)c1c(O)c(Cl)cc(Cl)c1Cl` [Oxyclosanide, oxyclozanide], the “LD50, median” value (rats; p.o.) is listed as 2250 mg/kg, the LD50 (rats; p.o.) is listed as 980 to 3519 mg/kg and the LD50 (mice; p.o.) is listed as 300 mg/kg. The LD50 (rabbits) was 3200 mg/kg, the MIC [1, 2] was at most 0.25 µg/mL and the MIC [1, 3] was at most 0.25 µg/mL. The MIC [1, 4] was at most 0.25 µg/mL, the MIC [1, 5] was at most 0.25 µg/mL and the MIC [1, 6] was at most 0.25 µg/mL. The MIC [1, 7] was at most 0.25 µg/mL, the MIC [1, 8] was at most 0.25 µg/mL and the MIC [1, 9] was at most 0.25 µg/mL. It also gave an MIC [1, 10] of at most 0.25 µg/mL, an MIC [1, 11] of at most 0.25 µg/mL and an MIC [1, 12] of at most 0.25 µg/mL. For the same compound, the MIC [1, 13] was at most 0.25 µg/mL, the MIC [1, 14] was at most 0.25 µg/mL and the MIC [1, 15] was at most 0.25 µg/mL. It also gave an MIC [1, 16] of at most 0.25 µg/mL, an MIC [1, 17] of at most 0.25 µg/mL and an MIC [1, 18] of at most 0.25 µg/mL. The MIC [1, 19] was at most 0.25 µg/mL, the MIC [1, 20] was at most 0.25 µg/mL and the MIC [1, 21] was at most 0.25 µg/mL. For the same compound, the MIC [1, 22] was at most 0.25 µg/mL, the MIC [1, 23] was at most 0.25 µg/mL and the MIC [1, 24] was at most 0.25 µg/mL. The MIC [1, 25] was at most 0.25 µg/mL, the MIC [1, 26] was at most 0.25 µg/mL and the MIC [1, 27] was at most 0.25 µg/mL. For the same compound, the MIC [1, 28] was at most 0.25 µg/mL, the MIC [1, 29] was at most 0.25 µg/mL and the MIC [1, 30] was at most 0.25 µg/mL. For the same compound, the MIC [1, 31] was at most 0.25 µg/mL, the MIC [1, 32] was at most 0.25 µg/mL and the MIC [1, 33] was at most 0.25 µg/mL. It also gave an MIC [1, 34] of at most 0.25 µg/mL, an MIC [1, 35] of at most 0.25 µg/mL and an MIC [1, 36] of at most 0.25 µg/mL. For the same compound, the MIC [1, 37] was at most 0.25 µg/mL, the MIC [1, 38] was at most 0.25 µg/mL and the MIC [1, 39] was at most 0.25 µg/mL. For the same compound, the MIC [1, 40] was at most 0.25 µg/mL, the MIC [1, 41] was at most 0.25 µg/mL and the MIC [1, 42] was at most 0.25 µg/mL. For the same compound, the MIC [1, 43] was at most 0.25 µg/mL, the MIC [1, 44] was at most 0.25 µg/mL and the MIC [1, 45] was at most 0.25 µg/mL. It also gave an MIC [1, 46] of at most 0.25 µg/mL, an MIC [1, 47] of at most 0.25 µg/mL and an MIC [1, 48] of at most 0.25 µg/mL. The MIC [1, 49] was at most 0.25 µg/mL and the “in vitro activity (in words)” value [1] was “Good in vitro activity”.
